# Assay results: US7030087B2, “Synthetic approach to designed chemical structures” (priority 1996, dated 2006)
# Tested on: ICAM-1
# Assay: ICAM-1 expression on endothelial cells (immunofluorescence, FACScan)
# Type: cell-based, human
# Procedure: In a first series of experiments, PF4 and βpep peptides were tested for their ability to prevent bFGF (fibroblast growth factor) mediated downregulation of ICAM-1. […] Simultaneously 100 μg/ml of each PF4, βpep-14, βpep-16, or medium was added. Mean ICAM-1 fluorescence intensity values were determined.
# Since the in vivo situation of tumor associated EC involves the low expression or even absence of ICAM-1, the next set of experiments aimed to study the ability to reinduce ICAM-I expression after bFBF preincubation. […] In these experiments, HUVEC were pretreated for 3 days with bFGF, subsequently PF4 was added for 3 days and, where indicated in the last 16 hours of culture 4 ng/ml TNFα was added. Human umbilical vein derived endothelial cells (HUVEC) were harvested from normal human umbilical cords by perfusion with 0.125% trypsin/EDTA as described previously. Cells were cultured in fibronectin (FN) coated tissue culture flasks in culture medium (RPMI-1640 with 20% human serum (HS), supplemented with 2 mM glutamine and 100 U/ml penicillin and 0.1 mg/ml streptomycin). Immunofluorescence using indirect PE-conjugated reagents required three separate incubations. 1×10^5 EC were fixed for 1 hour in 1% paraformaldehyde, resuspended in 20 μl appropriately diluted Mab and incubated for 1 hour on ice. Subsequently, cells were washed two times in PBS/BSA (0.1%) and incubated for another 30 minutes with biotinylated rabbit-anti-mouse Ig (Dako, Glostrup, Denmark). After another 2 washings, cells were incubated with streptavidin-phycoerythrin conjugate (Dako). Stained cells were analyzed on a FACScan flowcytometer. Data analysis was performed using PCLysys software (Becton Dickinson, Mountain View, Calif.). Statistical significance of observed differences was determined using the Student's t-test.
# The energy of EC to stimulation with inflammatory cytokines was the subject of a next series of experiments. For these experiments, HUVEC (human vascular endothelial cells) were pretreated with 10 ng/ml bFGF for 3 days. Subsequently, cells are subcultured for 3 days with […] in the presence of PF4. For the last 16 hours of the culture 4 ng/ml TNFα was added to induce upregulation of ICAM-1. […] The regulation of ICAM-1 at the protein level was confirmed in Northern blot analysis for detection of ICAM-1 message. In these experiments, HUVEC were cultured for 3 days with bFGF and treated for the last 4 and 24 hours with PF4 (100 μg/ml). TNFα was added 2 hours before isolation of RNA. RNA from a subconfluent EC cultures (75 cm^2 Petri-dishes) incubated with bFGF for different time-points was isolated using an RNA-zol kit (Campro Scientific, Houston, Tex.). Total RNA (10 μg) for each sample was separated in a 0.8% formaldehyde-denaturing gel, transferred to nitrocellulose (Hybond N+, Amersham International, Amersham, UK) and hybridized to a ^32P-labelled 1.9 Kb c-DNA probe, containing the functional sequence of the human ICAM-1 gene (a gift from Dr. B. Seed). Membranes were washed at a high stringency in 0.2×SSC, 0.1% SDS at 50° C. for 1 hour. Filters were exposed to X-ray films (Kodak X-omat, Eastman Kodak Company, Rochester, N.Y.) using an intensifying screen at −80° C. for not less than 12 hr. Autoradiograms were subjected to scanning using a laser densitometer (Model GS670, Bio-Rad, Hercules, Calif.) and data were analysed with the Molecular Analyst PC™ software. The intensity of the major ICAM-1 mRNA transcript was normalized with respect to actin mRNA expression used as a control.
substance,measurement,setting,value
platelet factor 4 [PF4],bFGF mediated downregulation of ICAM-1 (in words),"10 ng/ml bFGF for 3 days, 100 μg/ml added simultaneously",did not result in the loss of ICAM-1 expression
same,expression of ICAM-1 (in words),"100 μg/ml, without bFGF",enhanced the expression of ICAM-1
same,decreased inflammatory response (TNFα upregulation of ICAM-1) of angiogenic stimulated EC (in words),"HUVEC 3 days 10 ng/ml bFGF, then 3 days with bFGF and test agent, 4 ng/ml TNFα last 16 hours",overcome
same,reinduction of ICAM-1 expression after bFGF preincubation (in words),"HUVEC pretreated 3 days with bFGF, then 100 μg/ml for 3 days in the presence of bFGF",reinduction of ICAM-1
